In ChEMBL document CHEMBL4364281, “Design of wogonin-inspired selective cyclin-dependent kinase 9 (CDK9) inhibitors with potent in vitro and in vivo antitumor activity” (Eur J Med Chem, 2019):
≈ marks a conversion by molar mass, not a printed value. Calls of active or inactive are those of the source. The calls are words filed in the database; no cut-off is given here.

Columns and labels:
HL-60 = assay: Antiproliferative activity against human HL60 cells assessed as reduction in cell viability after 72 hrs by MTT assay; format: functional, cell-based; details: HL-60, 72 h
CCRF-CEM = assay: Antiproliferative activity against human CEM cells assessed as reduction in cell viability after 72 hrs by MTT assay; format: functional, cell-based
MCF7 = assay: Antiproliferative activity against human MCF7 cells assessed as reduction in cell viability after 72 hrs by MTT assay; format: functional, cell-based; details: MCF7, 72 h
HeLa = assay: Antiproliferative activity against human HeLa cells assessed as reduction in cell viability after 72 hrs by MTT assay; format: functional, cell-based
RPMI-8226 = assay: Antiproliferative activity against human RPMI8226 cells assessed as reduction in cell viability after 72 hrs by MTT assay; format: functional, cell-based; details: RPMI-8226, 72 h
HEK293 = assay: Cytotoxicity against human HEK293 cells assessed as reduction in cell viability after 72 hrs by MTT assay; format: cell-based; details: HEK293, 72 h
MV4-11 [1] = assay: Cell cycle arrest in human MV4-11 cells assessed as accumulation at G1 phase at 0.05 uM after 24 hrs by propidium iodide staining based flow cytometry (reference value: 41.20%); format: functional
MV4-11 [2] = assay: Cell cycle arrest in human MV4-11 cells assessed as accumulation at S phase at 0.05 uM after 24 hrs propidium iodide staining based flow cytometry (reference value: 26.06%); format: functional
MV4-11 [3] = assay: Cell cycle arrest in human MV4-11 cells assessed as accumulation at G2 phase at 0.05 uM after 24 hrs propidium iodide staining based flow cytometry (reference value: 22.73%); format: functional
MV4-11 [4] = assay: Cell cycle arrest in human MV4-11 cells assessed as accumulation at G1 phase at 0.25 uM after 24 hrs after 24 hrs by propidium iodide staining based flow cytometry (reference value: 41.20%); format: functional
MV4-11 [5] = assay: Cell cycle arrest in human MV4-11 cells assessed as accumulation at G1 phase at 1.25 uM after 24 hrs by propidium iodide staining based flow cytometry (reference value: 41.20%); format: functional
MV4-11 [6] = assay: Cell cycle arrest in human MV4-11 cells assessed as accumulation at S phase at 1.25 uM after 24 hrs propidium iodide staining based flow cytometry (reference value: 26.06%); format: functional
MV4-11 [7] = assay: Cell cycle arrest in human MV4-11 cells assessed as accumulation at G2 phase at 1.25 uM after 24 hrs propidium iodide staining based flow cytometry (reference value: 22.73%); format: functional
MV4-11 [8] = assay: Induction of apoptosis in human MV4-11 cells by Annexin-V/propidium iodide staining based flow cytometric method; format: functional, cell-based
MV4-11 [9] = assay: Induction of apoptosis in human MV4-11 cells assessed as viable cells at 0.05 uM after 24 hrs by Annexin-V/propidium iodide staining based flow cytometric method (reference value: 96.94%); format: functional; details: MV4-11, 24 h, read-out: Activity
MV4-11 [10] = assay: Induction of apoptosis in human MV4-11 cells assessed as early apoptotic cells at 0.05 uM after 24 hrs by Annexin-V/propidium iodide staining based flow cytometric method (reference value: 0.36%); format: functional
MV4-11 [11] = assay: Induction of apoptosis in human MV4-11 cells assessed as late apoptotic cells at 0.05 uM after 24 hrs by Annexin-V/propidium iodide staining based flow cytometric method (reference value: 0.07%); format: functional
MV4-11 [12] = assay: Induction of apoptosis in human MV4-11 cells assessed as necrotic cells at 0.05 uM after 24 hrs by Annexin-V/propidium iodide staining based flow cytometric method (reference value: 2.64%); format: functional
MV4-11 [13] = assay: Induction of apoptosis in human MV4-11 cells assessed as viable cells at 0.25 uM after 24 hrs by Annexin-V/propidium iodide staining based flow cytometric method (reference value: 96.94%); format: functional; details: MV4-11, 24 h, read-out: Activity
MV4-11 [14] = assay: Induction of apoptosis in human MV4-11 cells assessed as early apoptotic cells at 0.25 uM after 24 hrs by Annexin-V/propidium iodide staining based flow cytometric method (reference value: 0.36%); format: functional
MV4-11 [15] = assay: Induction of apoptosis in human MV4-11 cells assessed as viable cells at 1.25 uM after 24 hrs by Annexin-V/propidium iodide staining based flow cytometric method (reference value: 96.94%); format: functional; details: MV4-11, 24 h, read-out: Activity
MV4-11 [16] = assay: Induction of apoptosis in human MV4-11 cells assessed as early apoptotic cells at 1.25 uM after 24 hrs by Annexin-V/propidium iodide staining based flow cytometric method (reference value: 0.36%); format: functional
MV4-11 [17] = assay: Induction of apoptosis in human MV4-11 cells assessed as late apoptotic cells at 1.25 uM after 24 hrs by Annexin-V/propidium iodide staining based flow cytometric method (reference value: 0.07%); format: functional
[18] = molecular target: Cyclin-dependent kinase 9 (Homo sapiens) (UniProt P50750); assay: Inhibition of CDK9 in human MV4-11 cells assessed as inhibition of RNA polymerase 2 phosphorylation at S2 residue after 4 hrs by Western blot analysis; format: cell-based
Cyclin-dependent kinase 9 (Homo sapiens), sequence (P50750 whole entry): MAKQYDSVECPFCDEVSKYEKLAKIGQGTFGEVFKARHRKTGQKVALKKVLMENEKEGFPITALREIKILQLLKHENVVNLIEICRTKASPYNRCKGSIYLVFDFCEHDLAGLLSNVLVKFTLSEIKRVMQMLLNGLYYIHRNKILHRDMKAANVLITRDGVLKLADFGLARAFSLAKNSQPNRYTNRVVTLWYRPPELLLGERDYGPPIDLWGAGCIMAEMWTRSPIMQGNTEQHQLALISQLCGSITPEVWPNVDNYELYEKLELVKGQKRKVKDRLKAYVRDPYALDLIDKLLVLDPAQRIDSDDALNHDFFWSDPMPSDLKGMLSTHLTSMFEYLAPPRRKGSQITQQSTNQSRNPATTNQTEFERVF

MV4-11 [19] = assay: Induction of apoptosis in human MV4-11 cells assessed as decrease in MCL-1 expression after 4 hrs by Western blot analysis; format: functional, cell-based
MV4-11 [20] = assay: Induction of apoptosis in human MV4-11 cells assessed as decrease in c-MYC expression after 4 hrs by Western blot analysis; format: functional, cell-based
MV4-11 [21] = assay: Induction of apoptosis in human MV4-11 cells assessed as effect on BCL-2 expression after 4 hrs by Western blot analysis; format: functional, cell-based
MV4-11 [22] = assay: Induction of apoptosis in human MV4-11 cells assessed as increase in cleaved PARP level after 24 hrs by Western blot analysis; format: functional, cell-based
MV4-11 [23] = assay: Induction of apoptosis in human MV4-11 cells assessed as increase in caspase-3 level after 24 hrs by Western blot analysis; format: functional, cell-based
MV4-11 [24] = assay: Antitumor activity against human MV4-11 cells xenografted in BALB/c mouse assessed as tumour growth inhibition at 15 mg/kg, iv administered every other day for 21 days relative to control; format: functional; details: MV4-11, iv, 504 h, read-out: TGI
MV4-11 [25] = assay: Antitumor activity against human MV4-11 cells xenografted in BALB/c mouse assessed as tumour growth inhibition at 30 mg/kg, iv administered every other day for 21 days relative to control; format: functional; details: MV4-11, iv, 504 h, read-out: TGI
MV4-11 [26] = assay: Antitumor activity against human MV4-11 cells xenografted in BALB/c mouse assessed as tumour growth inhibition at 45 mg/kg, iv administered every other day for 21 days relative to control; format: functional; details: MV4-11, iv, 504 h, read-out: TGI
[27] = Toxicity in BALB/c mouse assessed as effect on body weight at 15 to 45 mg/kg, iv administered every other day for 21 days; format: organism-based; details: in vivo, 504 h
CDK9/cyclin T1 = CDK9/cyclin T1 (Homo sapiens, UniProt P50750)
CDK9/cyclin T1, sequence (O60563 whole entry): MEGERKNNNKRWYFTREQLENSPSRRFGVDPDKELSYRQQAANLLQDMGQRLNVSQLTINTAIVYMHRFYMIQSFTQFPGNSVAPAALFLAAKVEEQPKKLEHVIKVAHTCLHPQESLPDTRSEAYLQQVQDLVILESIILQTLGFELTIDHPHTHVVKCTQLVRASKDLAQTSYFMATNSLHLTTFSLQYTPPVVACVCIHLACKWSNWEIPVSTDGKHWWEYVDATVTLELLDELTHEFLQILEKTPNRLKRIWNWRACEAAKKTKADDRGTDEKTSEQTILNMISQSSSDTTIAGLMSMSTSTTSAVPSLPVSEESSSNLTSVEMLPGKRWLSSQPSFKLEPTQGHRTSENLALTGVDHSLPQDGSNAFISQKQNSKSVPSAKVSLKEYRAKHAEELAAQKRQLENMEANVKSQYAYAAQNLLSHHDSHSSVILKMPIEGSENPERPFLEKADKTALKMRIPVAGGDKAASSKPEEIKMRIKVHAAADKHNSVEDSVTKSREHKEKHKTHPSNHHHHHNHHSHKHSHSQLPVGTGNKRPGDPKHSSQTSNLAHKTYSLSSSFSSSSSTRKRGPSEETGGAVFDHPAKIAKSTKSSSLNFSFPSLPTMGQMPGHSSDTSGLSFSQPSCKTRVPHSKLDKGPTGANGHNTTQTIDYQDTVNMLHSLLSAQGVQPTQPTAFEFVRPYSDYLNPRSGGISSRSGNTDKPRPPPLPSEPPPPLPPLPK
CDK9/cyclin T1, sequence (P50750 whole entry): as the sequence (P50750 whole entry) above

CDK2/Cyclin A2 = CDK2/Cyclin A2 (Homo sapiens, UniProt P24941)
Description: Inhibition of human CDK2/cyclin-A2 using H1 histone as substrate after 2 hrs by [gamma-33P]-ATP assay

HCT-116 = assay: cells; details: Homo sapiens, HCT-116, 72 h
Description: Antiproliferative activity against human HCT116 cells assessed as reduction in cell viability after 72 hrs by MTT assay

MV4-11 [28] = assay: cells; details: Homo sapiens, MV4-11, 72 h
Description: Antiproliferative activity against human MV4-11 cells assessed as reduction in cell viability after 72 hrs by MTT assay

physchem [29] = details: methanesulfonic acid buffer, pH 4.5
Description: Solubility of compound in methanesulfonic acid buffer at pH 4.5

physchem [30] = assay: physchem
Description: Intrinsic solubility of compound by potentiometric titration assay

physchem [31] = details: buffer, pH 7.4
Description: Hydrophobicity, log D of compound at pH 7.4

In the case of `COc1cc(O)c2c(=O)cc(-c3ccc(N4CCN(C)CC4)cc3)oc2c1Oc1c(C)n[nH]c1C`, the IC50 (HL-60) is reported as 5210 nM, the IC50 (CCRF-CEM) is reported as 1240 nM and the IC50 (MCF7) is reported as 480 nM. The IC50 (HeLa) was 2320 nM, the IC50 (RPMI-8226) was 820 nM and the IC50 (HEK293) was 22100 nM. The Activity (MV4-11 [1]) was 48.27%, the Activity (MV4-11 [2]) was 33.91% and the Activity (MV4-11 [3]) was 17.82%. For the same molecule, the Activity (MV4-11 [4]) was 55.77%, the Activity (MV4-11 [5]) was 62.77% and the Activity (MV4-11 [6]) was 28.21%. The Activity (MV4-11 [7]) was 9.01%, the Activity (MV4-11 [8]) was “Dose-dependent effect” and the viability at 0.05 µM (MV4-11 [9]) was 74.8%. It also gave an Activity (MV4-11 [10]) of 12.42%, an Activity (MV4-11 [11]) of 5.53% and an Activity (MV4-11 [12]) of 7.27%. It also gave a viability at 0.25 µM (MV4-11 [13]) of 63.7%, an Activity (MV4-11 [14]) of 21.25% and a viability at 1.25 µM (MV4-11 [15]) of 58.1%. For the same molecule, the Activity (MV4-11 [16]) was 26.43%, the Activity (MV4-11 [17]) was 9.05% and the inhibition [18] was “Dose-dependent effect”. For the same molecule, the Activity (MV4-11 [19]) was “Dose-dependent effect”, the Activity (MV4-11 [20]) was “Dose-dependent effect” and the Activity (MV4-11 [21]) was “inactive”. The Activity (MV4-11 [22]) was “Dose-dependent effect”, the Activity (MV4-11 [23]) was “Dose-dependent effect” and the inhibition in vivo at 15 mg/kg (MV4-11 [24]) was 22.9%. For the same molecule, the inhibition in vivo at 30 mg/kg (MV4-11 [25]) was 42.6%, the inhibition in vivo at 45 mg/kg (MV4-11 [26]) was 53% and the Activity [27] was “Non-Toxic”. The IC50 (CDK9/cyclin T1) was 19.9 nM, the IC50 (CDK2/Cyclin A2) was 913 nM and the IC50 (HCT-116) was 390 nM. The IC50 (MV4-11 [28]) was 20 nM, the solubility (physchem [29]) was 4540 µg/mL (≈ 9.53 mM) and the solubility (physchem [30]) was 28 µg/mL (≈ 0.0588 mM). The logD (physchem [31]) was 2.01.
